assay: in vitro; details: human, hela cells, % viability

Structure (SMILES) | viability at 28.5 h, 10 µM
COCCOC(=O)N1CCC(C(=O)NC(c2ccccc2)c2ccsc2)CC1 (centres unmarked) [CBK060155] | 94.4%
Cc1ccccc1Cn1c(CN2CCN(c3ccccc3)CC2)nc2c1c(=O)n(C)c(=O)n2C [CBK269488] | 94.6%
C=CCNC(=O)N[C@H]1C[C@H]2C(=O)Nc3cc(Cl)ccc3C(=O)N2C1 [CBK289365] | 92.5%
Cc1nc2c(C(=O)NCCCN3CCCC3=O)cnn2c(C)c1Cc1cccc(F)c1 [CBK162104] | 101%
Cc1nn(Cc2ccccc2)c(C)c1CC(=O)NCCn1ccnc1 [CBK282095] | 107%
Cc1nc(C)n(CC2CCCN(Cc3cn4ccccc4c3C#N)C2)n1 (centres unmarked) [CBK306103] | 92.6%
COc1cc(C(C)=O)ccc1OCCCN1CCC(O)(C(=O)c2ccc(Cl)c(Cl)c2)CC1 [CBK024875C] | 97.6%
Cc1ccc(NC(=O)c2nc3ccccc3[nH]2)c(C)n1 [CBK200296] | 94.4%
Cc1c(C(c2ccc3ccccc3c2)c2c(C)n(C)n(-c3ccccc3)c2=O)c(=O)n(-c2ccccc2)n1C [CBK261692] | 95.9%
O=C(O)C1CCCCC1C(=O)NCCCN1CCOCC1 (centres unmarked) [CBK286903] | 83.4%
Cc1cn2c(=O)c(C(=O)Nc3ccccc3C)cnc2s1 [CBK287710] | 94.1%
CN(C1CCCCC1)S(=O)(=O)NCCc1cn2ccccc2n1 [CBK305576] | 102%
O=[N+]([O-])c1ccc(CN2CCC(Oc3cncc(OCc4cccnc4)n3)C2)cc1 (centres unmarked) [CBK084456] | 91.6%
c1nc(OCCN2CCOCC2)cc(N2CCCNCC2)n1 [CBK085466] | 86.2%
Cc1ccc(S(=O)(=O)NCCc2ccccn2)s1 [CBK269223] | 102%
Cc1ccc(C(=O)O)cc1N1C(=O)c2ccc(S(=O)(=O)c3ccc(C(=O)O)cc3)cc2C1=O [CBK262747] | 96.1%
c1cc(-c2n[nH]c(C3CCNCC3)n2)ccn1 [CBK104676C] | 85.2%
O=C(C1CCC1)N1CCC(c2nc(C3CCCC3)no2)C1 (centres unmarked) [CBK285434] | 88.1%
CC(=O)c1ccc(-c2nccnc2N2CCN(c3ccncc3)CC2)s1 [CBK037015] | 95.8%
CC1(C)Cc2c(sc(NC(=O)c3ccccc3Cl)c2C(=O)O)CO1 [CBK126806] | 99.4%
COCCC(=O)NCc1ccc(OC2CCNCC2)cc1 [CBK024494T] | 98.6%
O=[N+]([O-])c1cccc(-c2cc(Nc3ccc4[nH]ccc4c3)ncn2)c1 [CBK090860] | 108%
CCCOc1ccc(C(C)=O)cc1CC(C(N)=O)C(N)=O [CBK263309] | 90.6%

Structure (SMILES) | viability at 28.5 h, 10 µM
Cc1cc(CNS(=O)(=O)c2cccc3nonc23)no1 [CBK062263] | 106%
COc1cc(CNC(=O)NC(=O)C2CCN(C(C)=O)CC2)cc(OC)c1OC [CBK034833] | 105%
CCc1c(C)nc2ccccc2c1SCCOC(=O)Nc1ccccc1 [CBK155466T] | 85.6%
CC(C)(C)OC(=O)N1CCN(Cc2ncc(-c3ccccc3)o2)CC1 [CBK306281] | 99.3%
COc1ccc(F)c(CN2CCC3(CCCNC3=O)CC2)c1 [CBK284827] | 102%
Cc1ccccc1-n1ncc2c(=O)n(CC(=O)N3CCCCC3)cnc21 [CBK287688] | 108%
CC(C)C(=O)Nc1cc2ccccc2c(-c2cccnc2)n1 [CBK073786] | 101%
Cc1onc(-c2ccccc2Cl)c1C(=O)N(Cc1nc(-c2ccccc2)no1)C(C)C [CBK269289] | 113%
CC(C)(C)NCC(O)CO/N=C(/c1ccncc1)c1ccc(Br)cc1 (centres unmarked) [CBK023914G] | 95.7%
Cc1ccc2cc(CN(Cc3ccccc3)S(C)(=O)=O)c(O)nc2c1 [CBK269329] | 94.4%
O=C(C1CCC1)N1CCC(c2nnc3n2CCCCC3)CC1 [CBK284625] | 103%
O=C(COc1ccccc1)Nc1nnc[nH]1 [CBK263898] | 108%
CCn1c2ccccc2c2cc(CN3CCN(Cc4cc(OC)cc(OC)c4)CC3)ccc21 [CBK263164] | 95.9%
Cc1cccc2c3c([nH]c12)C1(CCN(CCCC#N)CC1)NCC3 [CBK039818] | 90.8%
COc1cc2c(cc1OC)C1(CCN(CCCC(F)(F)F)CC1)NC(=O)C2 [CBK039859] | 97.9%
CC(=O)OC(COc1ccc2ccccc2c1Br)Cn1cnc2ccccc21 (centres unmarked) [CBK266083] | 84.6%
O=C(CN1CCN(Cc2ccccc2)CC1)Nc1ccc(C(F)(F)F)cc1Cl [CBK074781] | 103%
C=CCn1c(NCc2ccccc2NS(=O)(=O)c2ccc(C)cc2)nc2ccccc21 [CBK266393] | 111%
O=C(NC[C@H]1C[C@@H]2CC[N@]1C[C@@H]2CN1CCN(c2ncccn2)CC1)Nc1ccsc1 [CBK289117] | 90.3%
O=C(c1cncnc1)N1CCN(c2ncccn2)CC1 [CBK144515] | 88%
O=S(=O)(Nc1nncs1)c1ccccc1 [CBK045489] | 86.7%
COc1cc(-c2nccnc2N2CCCN(C)CC2)cc(OC)c1OC [CBK037994] | 97.8%
COc1ccc(CNC(=O)N2CCN(c3ccccc3OC)CC2)cc1OC [CBK155609] | 89.2%

Structure (SMILES) | viability at 28.5 h, 10 µM
Cn1nc([N+](=O)[O-])nc1Sc1nnnn1-c1ccc(C(=O)O)cc1 [CBK266961] | 109%
CC(C)(C)N1C(=O)c2ccc(C(=O)NNC(=O)C(C#N)C(=O)c3ccc4c(c3)C(=O)N(C(C)(C)C)C4=O)cc2C1=O (centres unmarked) [CBK268652] | 90.3%
CCOc1ccc(N2C(=O)CC(N3CCN(CCc4ccncc4)CC3)C2=O)cc1 (centres unmarked) [CBK269930] | 106%
O=C(CCCCCN1C(=O)c2cccc3cccc(c23)C1=O)NO [CBK261295] | 55.6%
O=C1CC2(CCN(S(=O)(=O)Cc3ccc(Cl)cc3)CC2)CN1 [CBK283355] | 102%
O=C(O)CC(Cc1ccc(Br)cc1)C(=O)Nc1ccccc1 (centres unmarked) [CBK262714] | 96.2%
CCc1c(C(=O)NCc2cc(C3CC3)[nH]n2)[nH]c2ccc(F)cc12 [CBK282501] | 76.3%
C=CCNc1nccnc1-c1ccc(O)cc1 [CBK036898] | 99.6%
CCOC(=O)CN1CCC(Oc2cncc(Oc3ccc(OC)c(OC)c3)n2)C1 (centres unmarked) [CBK084405] | 91.3%
O=C1CNC(=O)C2(C/C=C/C[C@H]3COCC[C@H]3N1)CCN(C(=O)Cc1cccnc1)CC2 [CBK292068] | 103%
Cn1cc(C(=O)NC2CCN(C(=O)c3ccc(C#N)cc3)CC2)cn1 [CBK305683] | 94.4%
Cc1ccc(CNC(=O)Cn2cc(-c3ccc(CN4CCC(C)CC4)cc3)nn2)cc1 [CBK164706] | 87.1%
CC(C)C(=O)Nc1ccc(-c2csc(N3CCN(C)CC3)n2)cc1 [CBK304317C] | 93.5%
COc1ccc2c(c1)CCCN2C(=O)c1sc2ccccc2c1Cl [CBK056960] | 90.2%
Cc1sc2nc(SCc3nc4ccccc4[nH]3)n(Cc3ccco3)c(=O)c2c1C [CBK267554] | 112%
CC12CCC(=O)N1C(C(=O)NCCNc1ccc(S(C)(=O)=O)cc1[N+](=O)[O-])CS2 (centres unmarked) [CBK296661] | 87.6%
Cc1oc(-c2ccccc2)cc1C(=O)Nc1cc2ccccc2c(N2CCNCC2)n1 [CBK038938T] | 104%
O=S(=O)(c1ccc(C(F)(F)F)cc1Cl)N1CCN(Cc2cccc(Br)c2)CC1 [CBK063163] | 83.7%
Clc1ccc(-n2ncc3c(NCc4ccccc4)ncnc32)cc1 [CBK287355] | 95.1%
COc1cc(C)cc(OC)c1-c1ncnc(C)c1C [CBK306762] | 85.7%
CN(C)c1ccc(-c2nc(C(F)(F)F)nn2C)cn1 [CBK307202] | 87.1%
Cc1cc2c3c(c1)c1c(n3CCC2)CCNCC1 [CBK018380C] | 96.9%
Cc1nn(CCC#N)c(C)c1CCC(=O)NCc1ccccn1 [CBK305693] | 82.5%

Structure (SMILES) | viability at 28.5 h, 10 µM
N#C/C(=C/c1ccc(-c2ccc(S(N)(=O)=O)cc2)o1)c1nc2ccccc2s1 [CBK264480] | 83.8%
COCCN(CCOC)Cc1c(C)nc2c(C)c(C)ccc2c1O [CBK265031] | 102%
O=C(NC1(c2cccc(F)c2)CCCC1)c1cnccn1 [CBK283619] | 93%
CCCCN1CC(=O)C(c2nc3ccccc3[nH]2)=C1N [CBK287777] | 93.7%
Cc1ccc(C)c(C(=O)C2=C(O)C(=O)N(CCN(C)C)C2c2ccc(O)cc2)c1 (centres unmarked) [CBK265740] | 102%
Cc1ccc(S(=O)(=O)NNC(=O)COc2cccc3cccnc23)cc1 [CBK268788] | 90.1%
CCn1ncc(CN(C)C(=O)CCC2CCCCN2C)c1C (centres unmarked) [CBK307329] | 116%
Cc1ccc(C(=O)Nc2ccccc2C(=O)NC(C)C(=O)O)cc1 (centres unmarked) [CBK263540] | 93.9%
CC1CN(C2(n3nnc4ccccc43)CCC(C(C)(C)C)CC2)CC(C)O1 (centres unmarked) [CBK019373] | 98.5%
CCc1nccn1CCC(=O)Nc1ccc2c(c1)nc(CC)n2CC [CBK281629] | 81.2%
COc1cc(C(=O)NCC(=O)O)cc(OC)c1OC [CBK261039] | 89.9%
CCCc1n[nH]c(=S)n1CC(=O)NCc1ccc(OCCC(C)C)c(OC)c1 [CBK297743] | 84.4%
NS(=O)(=O)c1cccc(NC(=O)c2cccs2)c1 [CBK024419] | 94.2%
O=C(O)c1cccc(NS(=O)(=O)Cc2ccccc2)c1 [CBK038894] | 96.4%
FC(F)(F)c1ccnc(OCCN2CCOCC2)c1 [CBK113286] | 97.1%
COc1cc2nc(NC(=O)c3ccccc3)sc2cc1OC [CBK287701] | 82.3%
Cc1cc2oc(=O)cc(C)c2cc1NC(=O)c1ccccc1C(=O)O [CBK286572] | 92.1%
Cc1ccc(S(=O)(=O)NCCSCc2ccc(Cl)cc2)cc1[N+](=O)[O-] [CBK264056] | 104%
CC(C)CN1CCOC(CNC(=O)c2cc(O)nc3ccccc23)C1 (centres unmarked) [CBK297931] | 80.6%
CCN(Cc1ccccc1)C(=O)NCc1cnc(C)cn1 [CBK155218] | 107%

From paper PMC12040169 (PLOS Biology, 2025)
